System: adult patients with persistent moderate to severe AD inadequately controlled by TCS
Test: Clinical Study II (phase II, open label, lebrikizumab monotherapy vs TCS alone): efficacy
Format: in vivo, human
Settings: for % change in BSA / % change in EASI / % change in SCORAD / EASI-75 (percent of patients) / EASI-90 (percent of patients) / IGA 0/1 (percent of patients): lebrikizumab 125 mg SC Q4W monotherapy (n = 28) or TCS cream alone BID (n = 27); for % change in pruritus VAS: patients with baseline pruritus VAS ≥3, lebrikizumab 125 mg SC Q4W monotherapy or TCS cream alone BID
Source text: Clinical Study II was a Phase II, randomized, open label study to evaluate the safety and efficacy of lebrikizumab monotherapy in adult patients (18-75 years of age) with persistent moderate to severe AD, who were inadequately controlled by TCS.
The inclusion criteria included the following: age 18 to 75 years; AD diagnosed by the Hanifin/Rajka criteria and that had been present for at least 1 year at screening; moderate to severe AD as graded by the Rajka/Langeland criteria at screening; history of inadequate response to a 1 month (within the 3 months prior to the screening visit) treatment regimen of at least daily TCS and regular emollient for treatment of AD; EASI score 14 at screening and end of the run-in period (Visit 3), IGA score 3 (5-point scale) at screening and end of the run-in period (Visit 3); AD involvement of 10% body surface area (BSA) at screening; and Pruritus VAS score (measured as part of the SCORAD) of 3 at screening; adherence to the protocol-specified 2-week run-in period TCS regimen (at least 10 out of 14 days) at the time of entry into the treatment period (Day 1).
Run-in Period. Following screening, eligible patients entered a 2-week run-in period (Days −14 to −1). After the run-in period, patients stopped use of their pre-study TCS (and other AD medications) and began a protocol-specified topical therapy regimen as outlined below. On the first day of the run-in period (Day −14) patients received TCS for use throughout the run-in period. Specifically, patients received triamcinolone acetonide 0.1% cream for use on the body and hydrocortisone 2.5% cream for use on the face and intertriginous areas. Patients were instructed to apply emollient to all xerotic skin surfaces at least once daily and to apply cream to active skin lesions twice per day and not to apply cream to unaffected areas.
Treatment Period (Weeks 1-12). […] A total of approximately 50 patients were randomized (1:1) to one of the following two treatment groups (see FIG. 10): Group 1: 125 mg of lebrikizumab administered by subcutaneous (SC) injection every 4 weeks (Q4W) for a total of 3 doses; and Group 2: TCS cream alone.
Efficacy Outcome Measures. The exploratory efficacy outcome measures of lebrikizumab monotherapy compared to TCS alone for this study were as follows, in order: (i) percent of patients with a 50% or 75% (EAST 50/75) reduction from baseline EASI at Week 12 (EASI-50 and EASI-75 were defined as a 50% and 75% reduction, respectively, in EASI score at Week 12 compared to baseline); (ii) percent and absolute change from baseline in EASI score at Week 12; (iii) percent of patients achieving an IGA score of 0 or 1 at Week 12; (iv) percent of patients with a ≥2 point reduction from baseline in IGA at Week 12; (v) absolute change from baseline in IGA at Week 12; (vi) percent of patients achieving an IGSA score of 0 or 1 at Week 12; (vii) percent of patients with a ≥2 point reduction from baseline in IGSA at Week 12; (viii) absolute change from baseline in IGSA at Week 12; (ix) percent and absolute change from baseline in SCORAD at Week 12; (x) percent of patients with a 50% or 75% reduction (SCORAD 50/75) from baseline in SCORAD score at Week 12; (xi) percent change from baseline in total percent body surface area (BSA) affected at Week 12; (xii) absolute- and percent-change from baseline in pruritus as measured by the Pruritus VAS (assessed as part of the SCORAD) at Week 12; (xiii) number of disease flares from baseline to Week 12; and (xiv) percent of patients who receive non-protocol specified TCS before Week 12.

For “lebrikizumab: monoclonal humanized anti-IL-13 IgG4 antibody; heavy chain SEQ ID NO: 11, light chain SEQ ID NO: 12; formulated at 125 mg/mL in prefilled syringe”, the “% change in BSA” value (Baseline to Week 12) was −43.2%, the “% change in EASI” value (Baseline to Week 12) was −44.0% and the “% change in SCORAD” value (Baseline to Week 12) was −26.6%. The “EASI-75 (percent of patients)” value (Baseline to Week 12) was 39.3%, the “EASI-90 (percent of patients)” value (Baseline to Week 12) was 14.3% and the “IGA 0/1 (percent of patients)” value (Baseline to Week 12) was 7.1%. The “% change in pruritus VAS” value (Baseline to Week 12) was −14.5%, the “% change in BSA” value (Day −14 to Week 12) was −52.2% and the “% change in EASI” value (Day −14 to Week 12) was −53.8%. For the same substance, the “% change in SCORAD” value (Day −14 to Week 12) was −40.5%, the “EASI-75 (percent of patients)” value (Day −14 to Week 12) was 42.9% and the “EASI-90 (percent of patients)” value (Day −14 to Week 12) was 14.3%. For the same substance, the “IGA 0/1 (percent of patients)” value (Day −14 to Week 12) was 7.1% and the “% change in pruritus VAS” value (Day −14 to Week 12) was −39.6%.

Source: patent US12692302B2, “Uses of IL-13 antagonists for treating atopic dermatitis” (Genentech, Inc., priority 2016, dated 2026)
